Experimental data as given in the OligoGym collection.
After the bases stand the sugars from the 5' end (letter, count) and the backbone: PS all phosphorothioate, else s phosphorothioate and o phosphodiester by linkage. Methylation of C is not given here. e = 2'-O-(2-methoxyethyl) (MOE); k = constrained ethyl (cEt); d = 2'-deoxy (DNA); m = 2'-O-methyl

Target: HSD17B13
Conditions: ASO, HepaRG

Row | Sequence | target mRNA inhibition (1 µM) | also measured
1 | GTGCATCTTAAGATAC (sugars kkdddddddddkekek, PS) | 20% | 
2 | TAACTCTATTGATTGG (sugars k3 d10 k3, PS) | 51% | 
3 | GCACTAAAGGTTTCTG (sugars k3 d10 k3, PS) | 75% | target mRNA inhibition (0.02 µM): 24%; target mRNA inhibition (0.078 µM): 39%; target mRNA inhibition (0.313 µM): 58%; target mRNA inhibition (1.25 µM): 79%; target mRNA inhibition (5 µM): 90%
4 | GTTTUGGGCTAATGAA (sugars k3 d1 m1 d8 k3, PS) | 30% | 
5 | ATTTTACTGGGATACT (sugars k3 d10 k3, PS) | 49% | 
6 | GACAGTAGATTTGGTA (sugars k3 d10 k3, PS) | 34% | 
7 | ACCTTACCTTGTGCTT (sugars k3 d10 k3, PS) | 0% | 
8 | GAACCCAGTATTCACA (sugars k3 d10 k3, PS) | 0% | 
9 | TTTAAAATAGAGTCGG (sugars k3 d10 k3, PS) | 69% | target mRNA inhibition (0.02 µM): 0%; target mRNA inhibition (0.078 µM): 0%; target mRNA inhibition (0.313 µM): 1%; target mRNA inhibition (1.25 µM): 48%; target mRNA inhibition (5 µM): 77%
10 | AATAGCAAGCCAACAG (sugars k3 d10 k3, PS) | 9% | 
11 | ACCAATGCAGTTTGTA (sugars k3 d10 k3, PS) | 75% | target mRNA inhibition (0.02 µM): 6%; target mRNA inhibition (0.078 µM): 0%; target mRNA inhibition (0.313 µM): 32%; target mRNA inhibition (1.25 µM): 80%; target mRNA inhibition (5 µM): 90%
12 | GTTATTAGAAGTCAGC (sugars k3 d10 k3, PS) | 56% | 
13 | TTGGTGGACTTCAGAG (sugars k3 d10 k3, PS) | 8% | 
14 | ATTGATATACGATGGA (sugars k3 d10 k3, PS) | 31% | 
15 | GTTATACAGAAGACAG (sugars k3 d10 k3, PS) | 54% | 
16 | TTATTGTAGGGATTGA (sugars k3 d10 k3, PS) | 63% | 
17 | ACTTTTCCGTCTCACA (sugars k3 d10 k3, PS) | 89% | target mRNA inhibition (0.02 µM): 0%; target mRNA inhibition (0.078 µM): 19%; target mRNA inhibition (0.313 µM): 61%; target mRNA inhibition (1.25 µM): 88%; target mRNA inhibition (5 µM): 84%
18 | AATCTAGCAACCTCTA (sugars k3 d10 k3, PS) | 22% | 
19 | ACTGCTGCTAGTGCCA (sugars k3 d9 k3 e1, PS) | 57% | 
20 | GTCTACCTCTAAGTTA (sugars k3 d9 k3 e1, PS) | 41% | 
21 | GACATGAGGTTTTGAT (sugars k3 d10 k3, PS) | 52% | 
22 | GTTCTTGTTGATATTC (sugars k3 d9 k3 e1, PS) | 69% | 
23 | TAGTGTAAGCTGAGAG (sugars kkdddddddddkekek, PS) | 68% | target mRNA inhibition (0.02 µM): 24%; target mRNA inhibition (0.078 µM): 25%; target mRNA inhibition (0.313 µM): 37%; target mRNA inhibition (1.25 µM): 51%; target mRNA inhibition (5 µM): 81%
24 | CACAAGTAAGGTAAAG (sugars kkdddddddddkekek, PS) | 38% | 

Row | Sequence | target mRNA inhibition (1 µM) | also measured
25 | CAGATTATTATGTGAT (sugars kkdddddddddkekek, PS) | 31% | 
26 | TTGTACCCTGTTCTCA (sugars k3 d10 k3, PS) | 64% | 
27 | CAGTTTTCCTCATGAT (sugars k3 d9 k3 e1, PS) | 65% | 
28 | GTAAACGACTCTGTAA (sugars k3 d10 k3, PS) | 8% | 
29 | ATCAATTTATCATACC (sugars k3 d10 k3, PS) | 11% | 
30 | TATAGACTGGGTAGGA (sugars k3 d1 m1 d8 k3, PS) | 30% | 
31 | CAGATTATTATGTGAT (sugars k3 d9 k3 e1, PS) | 38% | 
32 | TTCATAGTGGACTTCA (sugars k3 d10 k3, PS) | 51% | 
33 | CTAGTAATTGCATCTG (sugars k3 d10 k3, PS) | 57% | 
34 | GATACACCAATGCAGT (sugars k3 d10 k3, PS) | 73% | 
35 | TAGCTAAGGGAGAGTG (sugars k3 d10 k3, PS) | 9% | 
36 | GTAAATTGAATAGCCA (sugars k3 d10 k3, PS) | 55% | 
37 | TTAGTATAGTTATCTT (sugars k3 d10 k3, PS) | 37% | 
38 | GCTAGTGCCAAACCAA (sugars k3 d1 m1 d8 k3, PS) | 65% | 
39 | TGTAAGCTGAGAGTTC (sugars k3 d10 k3, PS) | 45% | 
40 | CACACTAATGAATCAT (sugars k3 d10 k3, PS) | 30% | 
41 | GCTAAAAGCTCACCAA (sugars k3 d10 k3, PS) | 26% | 
42 | ACAGTCTTAAACCTTC (sugars k3 d9 k3 e1, PS) | 73% | target mRNA inhibition (0.02 µM): 13%; target mRNA inhibition (0.078 µM): 31%; target mRNA inhibition (0.313 µM): 52%; target mRNA inhibition (1.25 µM): 71%; target mRNA inhibition (5 µM): 80%
43 | GAAATTTGTGAACCTG (sugars k3 d10 k3, PS) | 32% | 
44 | CTCCGTGTAGTTTGGT (sugars k3 d10 k3, PS) | 28% | 
45 | AATCCCAACCAAACTT (sugars k3 d1 m1 d8 k3, PS) | 7% | 
46 | TTAAGCAGAATTGTGA (sugars k3 d10 k3, PS) | 7% | 
47 | TTTTAGTCAGGTAGAG (sugars k3 d10 k3, PS) | 3% | 
48 | TATAGAGGGTCCACTT (sugars k3 d10 k3, PS) | 17% | 

Row | Sequence | target mRNA inhibition (1 µM) | also measured
49 | TGTCCACCTTTAAATG (sugars kkdddddddddkekek, PS) | 27% | 
50 | CTTTTTATAGACTGGG (sugars kkdddddddddkekek, PS) | 37% | 
51 | CTTCTTACGACTTCAT (sugars k3 d10 k3, PS) | 45% | 
52 | CTGATTAATCTTGATG (sugars k3 d10 k3, PS) | 32% | 
53 | GTGACATAACTACTTC (sugars k3 d10 k3, PS) | 68% | 
54 | ACCACATACGCATGCG (sugars k3 d10 k3, PS) | 45% | 
55 | TTTTTATTGGGCCCAA (sugars k3 d10 k3, PS) | 51% | 
56 | TTGAGTAGTGTAAGCT (sugars k3 d9 k3 e1, PS) | 40% | 
57 | GTACAGTAGGCAGTTT (sugars k3 d10 k3, PS) | 50% | 
58 | CTTAACAAACCTCCAC (sugars k3 d10 k3, PS) | 3% | 
59 | ACTAGAACTCCCAACC (sugars k3 d10 k3, PS) | 20% | 
60 | CCTTACTAAGGAAATT (sugars k3 d10 k3, PS) | 28% | 
61 | CCTAGGATGTTGACCT (sugars k3 d10 k3, PS) | 3% | 
62 | TGAGAGAACTTATACA (sugars k3 d10 k3, PS) | 32% | 
63 | TTCAGTTAGCAGCTAA (sugars k3 d10 k3, PS) | 72% | target mRNA inhibition (0.02 µM): 0%; target mRNA inhibition (0.078 µM): 0%; target mRNA inhibition (0.313 µM): 26%; target mRNA inhibition (1.25 µM): 63%; target mRNA inhibition (5 µM): 82%
64 | CTACTTGAACAGTCTT (sugars k3 d9 k3 e1, PS) | 71% | 
65 | ACCCAGTATTCACAAA (sugars k3 d10 k3, PS) | 10% | 
66 | GCAGCTAAAATCCAAT (sugars k3 d10 k3, PS) | 70% | 
67 | AATCAATCTGTCTGAA (sugars k3 d10 k3, PS) | 34% | 
68 | TGTAAAGGCTGGGTGA (sugars k3 d10 k3, PS) | 26% | 
69 | AGATGGTAAGGAGTAG (sugars k3 d10 k3, PS) | 26% | 
70 | TCAACTAAACATGACA (sugars k3 d10 k3, PS) | 77% | target mRNA inhibition (0.02 µM): 0%; target mRNA inhibition (0.078 µM): 0%; target mRNA inhibition (0.313 µM): 42%; target mRNA inhibition (1.25 µM): 69%; target mRNA inhibition (5 µM): 89%
71 | GTATTAAGACAGTTGA (sugars k3 d10 k3, PS) | 45% | 
72 | TCTTAAGATACCCAGG (sugars k3 d10 k3, PS) | 58% | 

Row | Sequence | target mRNA inhibition (1 µM) | also measured
73 | AGACAATTAACATTCG (sugars k3 d10 k3, PS) | 62% | 
74 | GATGTCAGACCTCTGT (sugars k3 d10 k3, PS) | 6% | 
75 | GTGGCATGGCTACAGA (sugars k3 d9 k3 e1, PS) | 38% | 
76 | CTGAGTAAACGACTCT (sugars k3 d10 k3, PS) | 33% | 
77 | GTAAGCACAGAAGTTT (sugars k3 d10 k3, PS) | 55% | 
78 | TGGCCGCACACTGAAG (sugars k3 d10 k3, PS) | 0% | 
79 | TGTGGCATGGCTACAG (sugars k3 d9 k3 e1, PS) | 25% | 
80 | CTATTGTATGAGGTCT (sugars k3 d10 k3, PS) | 42% | 
81 | AGTAAGGTAAAGTCTA (sugars k3 d10 k3, PS) | 55% | 
82 | AAATAGAGTCGGTCAC (sugars k3 d1 m1 d8 k3, PS) | 63% | 
83 | AGCTATAGGTAGCTAA (sugars k3 d10 k3, PS) | 0% | 
84 | TCCATCTATCAGACTT (sugars k3 d10 k3, PS) | 42% | 
85 | ATGAGTAGGCAACTGA (sugars k3 d10 k3, PS) | 61% | 
86 | TCCAAGGAGTGCATCT (sugars k3 d10 k3, PS) | 46% | 
87 | TTAAGCATTGTTAGCT (sugars k3 d10 k3, PS) | 16% | 
88 | TCAGATCCCGTTCTTG (sugars k3 d10 k3, PS) | 59% | 
89 | ATGTGAAGAGCTGGTA (sugars kkdddddddddkekek, PS) | 54% | 
90 | TGACAATGGTTGATAG (sugars k3 d10 k3, PS) | 16% | 
91 | TCATAAGTAGTCTGCC (sugars k3 d10 k3, PS) | 62% | 
92 | TGAGTAAACGACTCTG (sugars k3 d10 k3, PS) | 23% | 
93 | CTCAAATGAGGCGGCA (sugars k3 d10 k3, PS) | 56% | 
94 | ACATAGCTAACTCAGG (sugars k3 d10 k3, PS) | 38% | 
95 | GCATTGTAATCTTGAG (sugars k3 d10 k3, PS) | 35% | 
96 | CTTAAGATACCCAGGT (sugars kkdddddddddkekek, PS) | 34% | 
